# Measurements taken from PubChem BioAssay (NCI).
# Where “and” joins values, the source holds several entries; their conditions need not be identical. Identical values can stand only once.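 Interpolation was linear, between the two tested concentrations surrounding the appropriate level; five concentrations were tested over 48 hours in 96-well plates. Abbreviation: GI50, concentration required for 50% inhibition of growth. TGI marks complete inhibition of growth.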
# Tested on: KM12 colon
# Assay: inhibition of tumour cell growth, NCI panel, 48 h
SMILES,TGI,GI50
Clc1ccc2c(c1)[nH]c1c2nc2ccccn21,35.7 µM and 32 µM,–
CCOC(=O)c1cnc2c(ccc3[nH]n(C)nc32)c1=O,> 100 µM,–
NC(=S)N/N=C(\CC1OC(=O)c2ccccc21)c1ccc(Cl)cc1 (stereo not drawn),52 µM,–
COC(=O)C(C(=O)c1ccccc1)C(C(=O)C(=O)Nc1ccc(OC)cc1OC)C(=O)C(=O)c1ccc(C)cc1 (stereo not drawn),> 100 µM,–
CC1(C)COC(C2(C)C(=O)C=C(c3ccccc3)c3ccccc32)=N1 (stereo not drawn),> 100 µM,–
O=C(Nc1ccn(CCO)c(=O)n1)c1ccccc1,> 100 µM,–
O=C1CCC2(c3ccc(Cl)cc3)Nc3ncccc3N12 (stereo not drawn),> 100 µM,–
COc1ccc(Sc2[nH]c(C(C)=O)c3ccccc23)cc1,19.7 µM,6.49 µM
C#CCOc1cccc(-c2ncc3cc(NC(=O)CCl)ccc3n2)c1,3.11 µM,1.61 µM
CC12C/C(=C\c3ccccc3)C(=O)C3C1CCCC32,> 100 µM,–
OC(CC1SCCCS1)c1ccccc1 (stereo not drawn),> 100 µM,–
CCCCOC(=O)CNC(=O)OC/C=C/C#CC#C/C=C/COC(=O)NCC(=O)OCCCC,> 100 µM,> 100 µM
COc1ccc(OC)c2c1[nH]c(=O)c1c3ccccc3cn21,2.89 µM,1.29 µM
COc1cccc2c1C(=O)c1c(O)c3c(c(O)c1C2=O)C[C@@](O)(C(=O)CO)C[C@@H]3OC1CC(N)CC(C)O1 (stereo partly drawn),1.31 µM and 1.89 µM,0.0798 µM and 0.0515 µM
O=C1c2ccccc2C(=O)N1CCn1ccc(NC(c2ccccc2)(c2ccccc2)c2ccccc2)nc1=O,49.1 µM,–
CC(C)(C)NNC(=O)CCn1[nH]c(=O)c(Cl)c(Cl)c1=O,> 100 µM,–
O=CCC1CCCCC1,> 100 µM,–

SMILES,TGI,GI50
CN(C)CCNC(=O)c1cccc2ccc(-c3ccc(O)cc3)nc12,16.8 µM and 14.9 µM,3.03 µM
CCC12CCCN(Cc3ccccc3)C1c1c(n(C)c3ccccc13)CC2 (stereo not drawn),> 253 µM,–
CSc1nc(=O)n(CCC#N)nc1SC,> 100 µM,–
COc1cc(Nc2ncccc2C(=O)NCc2cn(Cc3cccc(Oc4ccccc4)c3)nn2)cc(OC)c1,> 100 µM,3.84 µM
COc1cc(-c2oc(=O)ccc2C#Cc2ccccn2)cc(OC)c1OC,> 100 µM,0.884 µM
COc1ccc(/C=C\[N+](=O)[O-])cc1OC,7.54 µM,2.73 µM
c1ccc2cc(-c3cc4ccccc4s3)ccc2c1,> 100 µM,–
CC(C)C(CCl)NC(=O)c1cccc(C(=O)N[C@H](CCl)C(C)C)n1 (stereo in doubt),> 100 µM,–
NC(=O)/C=C/C(=O)c1c(Cl)cccc1Cl,3.02 µM,1.59 µM
CCC(=O)CC(=O)CCC(=O)Nc1cc(C)ccc1C,> 100 µM,–
NC(N)=N/N=C/c1c(-c2ccsc2)nc2sccn12,24.5 µM,12.1 µM
CC(=O)Nc1ccc(S(=O)(=O)N2C(=O)CCC2C(=O)Nc2ccc(Br)cc2)cc1 (stereo not drawn),13.7 µM,1.82 µM
CC(=O)CCn1ncc(Cl)c(Cl)c1=O,41.5 µM,–
CO/N=C(/C)c1cccc(Nc2cc(-n3nnc4ccccc43)nc3ccccc23)c1,5.78 µM,–
CN1CC(=O)N2Cc3ccccc3-n3cccc3C2C1 (stereo not drawn),> 100 µM,–
NC(=S)N/N=C/C(=O)O,> 100 µM,> 100 µM

# Tested on: LOX IMVI melanoma
# Assay: inhibition of tumour cell growth, NCI panel, 48 h
SMILES,TGI,GI50
NC(=S)N/N=C(\CC1OC(=O)c2ccccc21)c1ccc(Cl)cc1 (stereo not drawn),62.8 µM,–
COc1ccc2occ(CCC(=O)O)c2c1,> 100 µM,–
COC(=O)C(C(=O)c1ccccc1)C(C(=O)C(=O)Nc1ccc(OC)cc1OC)C(=O)C(=O)c1ccc(C)cc1 (stereo not drawn),> 100 µM,–
O=C(Nc1ccn(CCO)c(=O)n1)c1ccccc1,> 100 µM,–
O=C1CCC2(c3ccc(Cl)cc3)Nc3ncccc3N12 (stereo not drawn),> 100 µM,–
COc1ccc(Sc2[nH]c(C(C)=O)c3ccccc23)cc1,24.4 µM,11.8 µM
CC12C/C(=C\c3ccccc3)C(=O)C3C1CCCC32,> 100 µM,–
CCCCOC(=O)CNC(=O)OC/C=C/C#CC#C/C=C/COC(=O)NCC(=O)OCCCC,> 10 µM,–
COc1ccc(OC)c2c1[nH]c(=O)c1c3ccccc3cn21,2.88 µM,1.4 µM
COc1cccc2c1C(=O)c1c(O)c3c(c(O)c1C2=O)C[C@@](O)(C(=O)CO)C[C@@H]3OC1CC(N)CC(C)O1 (stereo partly drawn),0.262 µM and 0.12 µM,0.0295 µM and 0.0231 µM
O=C1c2ccccc2C(=O)N1CCn1ccc(NC(c2ccccc2)(c2ccccc2)c2ccccc2)nc1=O,31.8 µM,–
CC(C)(C)NNC(=O)CCn1[nH]c(=O)c(Cl)c(Cl)c1=O,> 100 µM,–
O=CCC1CCCCC1,> 100 µM,–
CN(C)CCNC(=O)c1cccc2ccc(-c3ccc(O)cc3)nc12,3.43 µM,–
CCC12CCCN(Cc3ccccc3)C1c1c(n(C)c3ccccc13)CC2 (stereo not drawn),> 253 µM,–
CSc1nc(=O)n(CCC#N)nc1SC,43.5 µM,–
COc1cc(Nc2ncccc2C(=O)NCc2cn(Cc3cccc(Oc4ccccc4)c3)nn2)cc(OC)c1,> 100 µM,5.1 µM
COc1cc(-c2oc(=O)ccc2C#Cc2ccccn2)cc(OC)c1OC,> 100 µM,4.38 µM
COC(=O)C1c2cc3c(cc2C(OC2OC(C)C(OC)C(C)(OC)C2OC)CC1(C)O)C(=O)c1c(O)cc2c(c1C3=O)OC1OC2(C)C(O)C([N+](C)(C)[O-])C1O (stereo not drawn),3.38 µM,–
O=C1CCC(Cl)=CC2CCCN12 (stereo not drawn),> 100 µM,–
COc1ccc(/C=C\[N+](=O)[O-])cc1OC,3.45 µM,1.66 µM
c1ccc2cc(-c3cc4ccccc4s3)ccc2c1,> 100 µM,–
CC(C)C(CCl)NC(=O)c1cccc(C(=O)N[C@H](CCl)C(C)C)n1 (stereo in doubt),> 100 µM,–
NC(=O)/C=C/C(=O)c1c(Cl)cccc1Cl,2.16 µM,0.793 µM
CCC(=O)CC(=O)CCC(=O)Nc1cc(C)ccc1C,> 100 µM,–
NC(N)=N/N=C/c1c(-c2ccsc2)nc2sccn12,33.2 µM,17.6 µM
CC(=O)Nc1ccc(S(=O)(=O)N2C(=O)CCC2C(=O)Nc2ccc(Br)cc2)cc1 (stereo not drawn),7.39 µM,0.972 µM
CC(=O)CCn1ncc(Cl)c(Cl)c1=O,30.5 µM,–
CN1CC(=O)N2Cc3ccccc3-n3cccc3C2C1 (stereo not drawn),> 100 µM,–
NC(=S)N/N=C/C(=O)O,> 100 µM,> 100 µM

# Tested on: M14 melanoma
# Assay: inhibition of tumour cell growth, NCI panel, 48 h
SMILES,TGI,GI50
Clc1ccc2c(c1)[nH]c1c2nc2ccccn21,64.5 µM and 36.9 µM,–
CCOC(=O)c1cnc2c(ccc3[nH]n(C)nc32)c1=O,> 100 µM,–
NC(=S)N/N=C(\CC1OC(=O)c2ccccc21)c1ccc(Cl)cc1 (stereo not drawn),> 100 µM,–
COc1ccc2occ(CCC(=O)O)c2c1,> 100 µM,–
COC(=O)C(C(=O)c1ccccc1)C(C(=O)C(=O)Nc1ccc(OC)cc1OC)C(=O)C(=O)c1ccc(C)cc1 (stereo not drawn),> 100 µM,–
CC1(C)COC(C2(C)C(=O)C=C(c3ccccc3)c3ccccc32)=N1 (stereo not drawn),> 100 µM,–
O=C(Nc1ccn(CCO)c(=O)n1)c1ccccc1,> 100 µM,–
O=C1CCC2(c3ccc(Cl)cc3)Nc3ncccc3N12 (stereo not drawn),> 100 µM,–
COc1ccc(Sc2[nH]c(C(C)=O)c3ccccc23)cc1,25.1 µM,11.7 µM
C#CCOc1cccc(-c2ncc3cc(NC(=O)CCl)ccc3n2)c1,4.54 µM,1.81 µM
CC12C/C(=C\c3ccccc3)C(=O)C3C1CCCC32,> 100 µM,–
OC(CC1SCCCS1)c1ccccc1 (stereo not drawn),> 100 µM,–
CCCCOC(=O)CNC(=O)OC/C=C/C#CC#C/C=C/COC(=O)NCC(=O)OCCCC,> 100 µM,> 100 µM
COc1ccc(OC)c2c1[nH]c(=O)c1c3ccccc3cn21,3.37 µM,1.79 µM
COc1cccc2c1C(=O)c1c(O)c3c(c(O)c1C2=O)C[C@@](O)(C(=O)CO)C[C@@H]3OC1CC(N)CC(C)O1 (stereo partly drawn),0.278 µM and 0.218 µM,0.036 µM
O=C1c2ccccc2C(=O)N1CCn1ccc(NC(c2ccccc2)(c2ccccc2)c2ccccc2)nc1=O,43 µM,–
CC(C)(C)NNC(=O)CCn1[nH]c(=O)c(Cl)c(Cl)c1=O,> 100 µM,–
O=CCC1CCCCC1,> 100 µM,–
CN(C)CCNC(=O)c1cccc2ccc(-c3ccc(O)cc3)nc12,2.75 µM,–
CSc1nc(=O)n(CCC#N)nc1SC,39.9 µM,–
COc1cc(Nc2ncccc2C(=O)NCc2cn(Cc3cccc(Oc4ccccc4)c3)nn2)cc(OC)c1,> 100 µM,4.8 µM
